How the values were obtained:
Format in all cases: binding
[1] = target: TEAD1 YAP50-100 (Homo sapiens, UniProt P28347); assay: TEAD1-YAP HTRF (TR-FRET) protein-protein interaction assay; details: TEAD1, YAP peptide 50-100, HTRF; for EC50: read-out: TEAD1 YAP50-100 HTRF combined: EC50
Procedure: (§1) Purified His-tagged TEAD protein (YAP Binding Domain, amino acids 217-447) is pre-incubated with Europium labelled anti-His antibody tracer (Perkin Elmer Cat #AD0110). Small molecule Inhibitors are then incubated with the TEAD-Eu protein complex for 30 minutes to allow for binding to TEAD protein. Biotinylated YAP peptide for TEAD-YAP assays (AA's 50-100) or biotinylated TAZ peptide for TEAD-TAZ assays (AA's 13-57) that has been pre-incubated with streptavidin-xl665 acceptor (CIS-Bio Cat #610SAXAC) or is added to the compound-TEAD mix. The TEAD-YAP-inhibitor mixture is then incubated for 60 minutes at room temperature. All reactions are carried out in a polystyrene plate. After 60 minutes, the plate is read on a plate reader using TR-FRET mode with wavelengths of 665 nm/615 nm. If YAP or TAZ binds to TEAD as expected, a TR-FRET signal results from the proximity of YAP or TAZ and TEAD after binding. If an inhibitor such as peptide 17 (Selleckchem Cat #58164) interferes with YAP-TEAD or TAZ-TEAD binding, the disruption of the YAP or TAZ:TEAD interaction results in a decrease in TR-FRET signal. The potency of compounds as YAP:TEAD or TAZ:TEAD protein-protein interaction (PPi) inhibitors is determined by an IC50 or EC50 value generated using a non-linear four parameter curve fit.

[2] = target: TEAD2 YAP50-100 (Homo sapiens, UniProt Q15562); assay: TEAD2-YAP HTRF (TR-FRET) protein-protein interaction assay; details: TEAD2, YAP peptide 50-100, HTRF; for EC50: read-out: TEAD2 YAP50-100 HTRF combined: EC50
Sequence of TEAD2 YAP50-100 (Q15562 217-447): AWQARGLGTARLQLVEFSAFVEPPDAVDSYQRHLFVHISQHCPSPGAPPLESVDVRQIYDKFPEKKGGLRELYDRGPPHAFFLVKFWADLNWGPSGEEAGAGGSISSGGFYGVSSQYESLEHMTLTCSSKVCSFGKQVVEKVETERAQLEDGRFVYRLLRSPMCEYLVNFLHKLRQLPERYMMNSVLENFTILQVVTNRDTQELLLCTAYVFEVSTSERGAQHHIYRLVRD
Procedure: as §1

[3] = target: TEAD3 YAP50-100 (Homo sapiens, UniProt Q99594); assay: TEAD3-YAP HTRF (TR-FRET) protein-protein interaction assay; details: TEAD3, YAP peptide 50-100, HTRF; for EC50: read-out: TEAD3 YAP50-100 HTRF combined: EC50
Sequence of TEAD3 YAP50-100 (Q99594 173-435 limits assumed): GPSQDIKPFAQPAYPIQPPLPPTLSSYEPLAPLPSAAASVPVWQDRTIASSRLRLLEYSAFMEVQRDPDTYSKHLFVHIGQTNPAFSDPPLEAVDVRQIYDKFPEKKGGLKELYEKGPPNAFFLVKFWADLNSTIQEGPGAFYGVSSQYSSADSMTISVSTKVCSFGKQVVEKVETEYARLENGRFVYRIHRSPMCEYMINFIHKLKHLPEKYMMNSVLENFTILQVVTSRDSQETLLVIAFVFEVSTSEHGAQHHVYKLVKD
Procedure: as §1

[4] = target: TEAD4 YAP50-100 (Homo sapiens, UniProt Q15561); assay: TEAD4-YAP HTRF (TR-FRET) protein-protein interaction assay; details: TEAD4, YAP peptide 50-100, HTRF; for EC50: read-out: TEAD4 YAP50-100 HTRF combined: EC50
Sequence of TEAD4 YAP50-100 (Q15561 217-434 limits assumed): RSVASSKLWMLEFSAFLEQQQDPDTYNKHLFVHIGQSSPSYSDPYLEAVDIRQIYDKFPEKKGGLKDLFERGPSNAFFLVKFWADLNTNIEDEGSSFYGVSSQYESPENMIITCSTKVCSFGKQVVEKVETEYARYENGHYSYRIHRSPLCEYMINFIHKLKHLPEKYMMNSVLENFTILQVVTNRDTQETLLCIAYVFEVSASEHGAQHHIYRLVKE
Procedure: as §1

[5] = target: TEAD1 TAZ (amino acids 13-57) (Homo sapiens, UniProt P28347); assay: TEAD1-TAZ HTRF (TR-FRET) protein-protein interaction assay; details: for TEAD1 TAZ HTRF combined: Max % Inhibition: TEAD1, TAZ peptide; for EC50: TEAD1-TAZ HTRF, TR-FRET 665 nm/615 nm, read-out: TEAD1 TAZ HTRF combined: EC50
Sequence of TEAD1 TAZ (amino acids 13-57) (P28347 167-426 limits assumed): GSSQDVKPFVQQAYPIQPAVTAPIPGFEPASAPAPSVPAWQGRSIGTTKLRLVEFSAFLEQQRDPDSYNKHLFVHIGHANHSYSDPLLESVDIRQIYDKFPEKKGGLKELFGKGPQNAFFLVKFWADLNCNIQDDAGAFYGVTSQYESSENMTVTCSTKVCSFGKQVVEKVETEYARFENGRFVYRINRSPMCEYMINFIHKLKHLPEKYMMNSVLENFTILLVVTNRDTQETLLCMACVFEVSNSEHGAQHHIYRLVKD
Procedure: as §1

[6] = target: TEAD2 TAZ (amino acids 13-57) (Homo sapiens, UniProt Q15562); assay: TEAD2-TAZ HTRF (TR-FRET) protein-protein interaction assay; details: for TEAD2 TAZ HTRF combined: Max % Inhibition: TEAD2, TAZ peptide; for EC50: TEAD2-TAZ HTRF, TR-FRET 665 nm/615 nm, read-out: TEAD2 TAZ HTRF combined: EC50
Sequence of TEAD2 TAZ (amino acids 13-57) (Q15562 217-447): as the sequence (Q15562 217-447) above
Procedure: as §1

[7] = target: TEAD3 TAZ (amino acids 13-57) (Homo sapiens, UniProt Q99594); assay: TEAD3-TAZ HTRF (TR-FRET) protein-protein interaction assay; details: for TEAD3 TAZ HTRF combined: Max % Inhibition: TEAD3, TAZ peptide; for EC50: TEAD3-TAZ HTRF, TR-FRET 665 nm/615 nm, read-out: TEAD3 TAZ HTRF combined: EC50
Sequence of TEAD3 TAZ (amino acids 13-57) (Q99594 173-435 limits assumed): as the sequence (Q99594 173-435 limits assumed) above
Procedure: as §1

[8] = target: TEAD4 TAZ (amino acids 13-57) (Homo sapiens, UniProt Q15561); assay: TEAD4-TAZ HTRF (TR-FRET) protein-protein interaction assay; details: for TEAD4 TAZ HTRF combined: Max % Inhibition: TEAD4, TAZ peptide; for EC50: TEAD4-TAZ HTRF, TR-FRET 665 nm/615 nm, read-out: TEAD4 TAZ HTRF combined: EC50
Sequence of TEAD4 TAZ (amino acids 13-57) (Q15561 217-434 limits assumed): as the sequence (Q15561 217-434 limits assumed) above
Procedure: as §1

Sequence of TEAD1 YAP50-100 (P28347 167-426 limits assumed): as the sequence (P28347 167-426 limits assumed) above

Cc1nccnc1-c1nn2c(=O)cc(-c3ccc(OC(c4ccccc4)C(F)(F)F)cc3)[nH]c2c1C(=O)N1C[C@H](CF)[C@@H]1C (single isomer, unassigned) [Final product obtained using Enantiomer B from Step 1, Example 56]
TEAD1 YAP50-100 HTRF combined: Max % Inhibition [1]: 66.0% | EC50 [1]: 430 nM | TEAD2 YAP50-100 HTRF combined: Max % Inhibition [2]: 83.5% | EC50 [2]: 80 nM | TEAD3 YAP50-100 HTRF combined: Max % Inhibition [3]: 71.0% | EC50 [3]: 830 nM | TEAD4 YAP50-100 HTRF combined: Max % Inhibition [4]: 59.5% | EC50 [4]: 2850 nM | TEAD1 TAZ HTRF combined: Max % Inhibition [5]: 60.5% | EC50 [5]: 360 nM | TEAD2 TAZ HTRF combined: Max % Inhibition [6]: 77.0% | EC50 [6]: 70 nM | TEAD3 TAZ HTRF combined: Max % Inhibition [7]: 68.0% | EC50 [7]: 940 nM | TEAD4 TAZ HTRF combined: Max % Inhibition [8]: 53.0% | EC50 [8]: 2100 nM

C[C@H]1[C@@H](CF)CN1C(=O)c1c(-c2cnccn2)nn2c(=O)cc(-c3ccc(C4CCCCC4)cc3)[nH]c12 (single isomer, unassigned) [Isomer A, Example 39]
TEAD1 YAP50-100 HTRF combined: Max % Inhibition [1]: 76.0% | EC50 [1]: 60 nM | TEAD2 YAP50-100 HTRF combined: Max % Inhibition [2]: 76.0% | EC50 [2]: 10 nM | TEAD3 YAP50-100 HTRF combined: Max % Inhibition [3]: 71.0% | EC50 [3]: 120 nM | TEAD4 YAP50-100 HTRF combined: Max % Inhibition [4]: 51.5% | EC50 [4]: 60 nM | TEAD1 TAZ HTRF combined: Max % Inhibition [5]: 69.5% | EC50 [5]: 70 nM | TEAD2 TAZ HTRF combined: Max % Inhibition [6]: 77.0% | EC50 [6]: 10 nM | TEAD3 TAZ HTRF combined: Max % Inhibition [7]: 69.5% | EC50 [7]: 130 nM | TEAD4 TAZ HTRF combined: Max % Inhibition [8]: 58.0% | EC50 [8]: 60 nM

C[C@@H]1[C@H](CF)CN1C(=O)c1c(-c2ncccn2)nn2c(=O)cc(-c3ccc(C4CCCCC4)cc3)[nH]c12 (single isomer, unassigned) [Isomer A, Example 40]
TEAD1 YAP50-100 HTRF combined: Max % Inhibition [1]: 75.0% | EC50 [1]: 60 nM | TEAD2 YAP50-100 HTRF combined: Max % Inhibition [2]: 76.0% | EC50 [2]: 10 nM | TEAD3 YAP50-100 HTRF combined: Max % Inhibition [3]: 68.5% | EC50 [3]: 140 nM | TEAD4 YAP50-100 HTRF combined: Max % Inhibition [4]: 53.5% | EC50 [4]: 30 nM | TEAD1 TAZ HTRF combined: Max % Inhibition [5]: 64.5% | EC50 [5]: 80 nM | TEAD2 TAZ HTRF combined: Max % Inhibition [6]: 70.5% | EC50 [6]: 10 nM | TEAD3 TAZ HTRF combined: Max % Inhibition [7]: 63.0% | EC50 [7]: 160 nM | TEAD4 TAZ HTRF combined: Max % Inhibition [8]: 53.0% | EC50 [8]: 30 nM

Cc1nccnc1-c1nn2c(=O)cc(-c3ccc(C4CCCCC4)cc3)[nH]c2c1C(=O)N1C[C@@H](CF)[C@H]1C (single isomer, unassigned) [Isomer A, Example 41]
TEAD1 YAP50-100 HTRF combined: Max % Inhibition [1]: 69.0% | EC50 [1]: 150 nM | TEAD2 YAP50-100 HTRF combined: Max % Inhibition [2]: 26.0% | EC50 [2]: 60 nM | TEAD3 YAP50-100 HTRF combined: Max % Inhibition [3]: 74.0% | EC50 [3]: 530 nM | TEAD4 YAP50-100 HTRF combined: Max % Inhibition [4]: 51.0% | EC50 [4]: 5500 nM | TEAD1 TAZ HTRF combined: Max % Inhibition [5]: 53.5% | EC50 [5]: 180 nM | TEAD2 TAZ HTRF combined: Max % Inhibition [6]: 35.0% | EC50 [6]: 50 nM | TEAD3 TAZ HTRF combined: Max % Inhibition [7]: 70.0% | EC50 [7]: 690 nM | TEAD4 TAZ HTRF combined: Max % Inhibition [8]: 51.5% | EC50 [8]: 4900 nM

Cc1nccnc1-c1nn2c(=O)cc(-c3ccc(CC4CCCC4)cc3)[nH]c2c1C(=O)N1C[C@@H](CF)[C@H]1C (single isomer, unassigned) [Isomer A, Example 42]
TEAD1 YAP50-100 HTRF combined: Max % Inhibition [1]: 64.0% | EC50 [1]: 80 nM | TEAD2 YAP50-100 HTRF combined: Max % Inhibition [2]: 45.0% | EC50 [2]: 20 nM | TEAD3 YAP50-100 HTRF combined: Max % Inhibition [3]: 69.5% | EC50 [3]: 320 nM | TEAD4 YAP50-100 HTRF combined: Max % Inhibition [4]: 48.5% | EC50 [4]: 4850 nM | TEAD1 TAZ HTRF combined: Max % Inhibition [5]: 49.0% | EC50 [5]: 80 nM | TEAD2 TAZ HTRF combined: Max % Inhibition [6]: 57.0% | EC50 [6]: 20 nM | TEAD3 TAZ HTRF combined: Max % Inhibition [7]: 66.0% | EC50 [7]: 340 nM | TEAD4 TAZ HTRF combined: Max % Inhibition [8]: 20.0% | EC50 [8]: 1100 nM

C[C@H]1[C@@H](CF)CN1C(=O)c1c(-c2ncccn2)nn2c(=O)cc(-c3ccc(CC4CCCC4)cc3)[nH]c12 (single isomer, unassigned) [Isomer A, Example 43]
TEAD1 YAP50-100 HTRF combined: Max % Inhibition [1]: 64.0% | EC50 [1]: 30 nM | TEAD2 YAP50-100 HTRF combined: Max % Inhibition [2]: 71.0% | EC50 [2]: 10 nM | TEAD3 YAP50-100 HTRF combined: Max % Inhibition [3]: 58.5% | EC50 [3]: 60 nM | TEAD4 YAP50-100 HTRF combined: Max % Inhibition [4]: 52.0% | EC50 [4]: 10 nM | TEAD1 TAZ HTRF combined: Max % Inhibition [5]: 54.5% | EC50 [5]: 30 nM | TEAD2 TAZ HTRF combined: Max % Inhibition [6]: 63.0% | EC50 [6]: 10 nM | TEAD3 TAZ HTRF combined: Max % Inhibition [7]: 52.0% | EC50 [7]: 60 nM | TEAD4 TAZ HTRF combined: Max % Inhibition [8]: 52.0% | EC50 [8]: 10 nM

C[C@H]1[C@@H](CF)CN1C(=O)c1c(-c2cnccn2)nn2c(=O)cc(-c3ccc(CC4CCCC4)cc3)[nH]c12 (single isomer, unassigned) [Isomer A, Example 44, Cis-5-(4-(cyclopentylmethyl)phenyl)-3-(3-(fluoromethyl)-2-methylazetidine-1-carbonyl)-2-(pyrazin-2-yl)pyrazolo[1,5-a]pyrimidin-7(4H)-one]
TEAD1 YAP50-100 HTRF combined: Max % Inhibition [1]: 64.0% | EC50 [1]: 60 nM | TEAD2 YAP50-100 HTRF combined: Max % Inhibition [2]: 52.0% | EC50 [2]: 40 nM | TEAD3 YAP50-100 HTRF combined: Max % Inhibition [3]: 65.5% | EC50 [3]: 1050 nM | TEAD4 YAP50-100 HTRF combined: Max % Inhibition [4]: 40.0% | EC50 [4]: 9350 nM | TEAD1 TAZ HTRF combined: Max % Inhibition [5]: 52.0% | EC50 [5]: 70 nM | TEAD2 TAZ HTRF combined: Max % Inhibition [6]: 56.5% | EC50 [6]: 40 nM | TEAD3 TAZ HTRF combined: Max % Inhibition [7]: 64.0% | EC50 [7]: 1200 nM | TEAD4 TAZ HTRF combined: Max % Inhibition [8]: 42.0% | EC50 [8]: 9500 nM

— US12692269B2, “Therapeutic compounds” (Genentech, Inc., priority 2019, dated 2026)
